Key:
[1] = target: T1, PKC-α (Rattus norvegicus, UniProt P05696); assay: In vitro competition with anti-PKC-α antibody on blotted cell lysate, Protocol A, C6Cx43 cells; type: binding
T1 construct: Cell lysates from either IMR-32 (human neuroblastoma) cells or C6Cx43 cells; endogenous in cells; host or cells: C6Cx43 (rat glioma transfected with connexin 43)
Description: The ability of the peptides to interfere with the binding of a PKC-α-specific monoclonal antibody to PKC-α was determined using the following protocol.
Cell lysates from either IMR-32 (human neuroblastoma) cells or C6Cx43 cells (rat glioma transfected cells overexpressing connexin 43) were obtained using standard protocols and the proteins of the lysate were separated by SDS PAGE electrophoresis and electrotransferred onto a nitrocellulose membrane. […] A primary polyclonal antibody specific for PKC-α (Santa Cruz Biotechnology, Inc., CA) was then added (15 μg/ml) and the membrane incubated for a further 45 minutes. Finally, the primary antibody was detected with a secondary antibody conjugated to alkaline phosphatase using standard procedures. The intensity of the band corresponding to PKC-α was assessed by scanning and densitometry using the Gel-Pro software (Media Cybernetics) to obtain relative band intensities (average of 3 replicas). Control assays were conducted as described above except that blocking buffer without peptide was used.
The results are expressed as relative band intensity and as a percentage of the intensity of the corresponding band in the control assay (“Relative intensity (%)”). “% inhibition” relates to the percentage of the PKC-α band that is inaccessible to the antibody.

[2] = target: PKC-α (Homo sapiens, UniProt P17252); assay: Kinase-Glo Luminescent Kinase Assay, substrate myelin basic protein; type: biochemical; settings: for inhibition at 150 µM: PRE 4 150 μM; for inhibition at 300 µM: PRE 4 300 μM; for inhibition at 600 µM: PRE 4 600 μM
Description: The ability of peptide PRE 4 (see Table 3) to inhibit the activity of PKC-α was tested using increasing concentrations of PRE 4 and the Kinase-Glo™ Luminescent Kinase Assay (Promega, Cat # V6712/3/4) following the manufacturer's instructions. Briefly, the assay is based on the Luciferase luminescent reaction with ATP. The substrate was myelin basic protein (MBP, a classical substrate of the PKC family). ATP was added to the PKC-α reaction solution at a given concentration and the remaining ATP was measured by luminescence. Luminescence of blank solutions, ATP provided at the beginning of the reaction and PKC-α activity in the presence or absence of PRE 4 were measured.
Blanks are subtracted from all values.
ATP remaining in all reactions was subtracted from the ATP values at the start=relative enzyme activity (Ea).
The relative activities were all measured and the Ea in the presence of PRE 4 are reported relative to the Ea of PKC-α alone taken as 100. The difference between 100 and the % Ea of PKC-α exposed to PRE 4 represents the relative level of inhibition.

[3] = target: T2, PKCepsilon (Homo sapiens, UniProt Q02156); assay: Antibody competitive binding assay with fluorescent antibody (FIG. 4); settings: PRE at 20× concentration
T2 construct: purchased
T2 sequence (Q02156 1-737): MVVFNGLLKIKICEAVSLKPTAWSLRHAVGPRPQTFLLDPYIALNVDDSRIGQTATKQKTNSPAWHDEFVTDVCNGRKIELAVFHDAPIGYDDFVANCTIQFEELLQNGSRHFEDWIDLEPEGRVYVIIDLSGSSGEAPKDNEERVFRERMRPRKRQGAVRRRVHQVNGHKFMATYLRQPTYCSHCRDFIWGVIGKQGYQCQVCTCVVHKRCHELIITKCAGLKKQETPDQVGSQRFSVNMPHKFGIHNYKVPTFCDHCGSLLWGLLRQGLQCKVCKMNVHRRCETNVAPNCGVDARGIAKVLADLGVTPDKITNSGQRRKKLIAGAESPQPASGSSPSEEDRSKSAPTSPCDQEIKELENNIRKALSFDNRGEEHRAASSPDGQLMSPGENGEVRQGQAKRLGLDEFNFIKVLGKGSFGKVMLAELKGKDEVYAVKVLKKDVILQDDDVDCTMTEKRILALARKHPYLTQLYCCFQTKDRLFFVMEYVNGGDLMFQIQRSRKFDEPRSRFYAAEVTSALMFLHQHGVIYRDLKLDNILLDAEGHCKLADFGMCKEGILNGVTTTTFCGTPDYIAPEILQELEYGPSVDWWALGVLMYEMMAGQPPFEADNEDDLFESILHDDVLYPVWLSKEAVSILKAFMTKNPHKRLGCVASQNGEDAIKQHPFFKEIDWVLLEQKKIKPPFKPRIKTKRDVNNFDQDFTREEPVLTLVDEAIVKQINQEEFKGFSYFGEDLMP
Description: FIG. 4 presents data from conventional antibody competitive binding assays using PKC-α versus a representative battery of PKC isoforms (commercially available). PKC isoforms representing the three subgroups of the PKC family were assessed (classical PKCs=PKCalpha; novel PKCs=PKCdelta and epsilon; atypical PKCs=PKCzeta). Controls received the appropriate PKC isoform fluorescent antibody. Treated samples received the PRE sequence from PhGα1 (20× concentration) and the same PKC antibody. Specific affinity to PKC-α in the treated sample by the PRE will therefore decrease the amount of binding by the fluorescent antibody, represented by a decrease in fluorescent intensity in the treated sample.

Ac-AKGIQEVKGGDAQNLIGISI-NH2 [PRE 3]
Band Intensity ([1]; 75 μg, Table 5): 0.909
inhibition at 0.075 mg ([1]; 75 μg, Table 5): 0%
remaining activity at 0.075 mg ([1]; 75 μg, Table 5, read-out: Relative Intensity (%)): 98%
Band Intensity ([1]; 300 μg, Table 5): 0.888
inhibition at 0.3 mg ([1]; 300 μg, Table 5): 0%
remaining activity at 0.3 mg ([1]; 300 μg, Table 5, read-out: Relative Intensity (%)): 95.8%
Band Intensity ([1]; 600 μg, Table 5): 0.889
inhibition at 0.6 mg ([1]; 600 μg, Table 5): 0%
remaining activity at 0.6 mg ([1]; 600 μg, Table 5, read-out: Relative Intensity (%)): 95.9%
Band Intensity ([1]; 3.75 mg, Table 5): 0.603
remaining activity at 3.75 mg ([1]; 3.75 mg, Table 5, read-out: Relative Intensity (%)): 105%
Band Intensity ([1]; 5.25 mg, Table 5): 0.599
remaining activity at 5.25 mg ([1]; 5.25 mg, Table 5, read-out: Relative Intensity (%)): 105%
Band Intensity ([1]; 7.5 mg, Table 5): 0.589
inhibition at 7.5 mg ([1]; 7.5 mg, Table 5): 0%
remaining activity at 7.5 mg ([1]; 7.5 mg, Table 5, read-out: Relative Intensity (%)): 103%

Ac-KDAQNLIGISI-NH2 [PRE 4, Ac-KDAQNLIGISI-NH2]
inhibition at 150 µM ([2]; Experiment 1): 6.15%
inhibition at 150 µM ([2]; Experiment 2): 28.9%
inhibition at 150 µM ([2]; Experiment 3): 40.1%
inhibition at 300 µM ([2]; Experiment 1): 9.76%
inhibition at 300 µM ([2]; Experiment 2): 40.7%
inhibition at 300 µM ([2]; Experiment 3): 35.5%
inhibition at 600 µM ([2]; Experiment 1): 16.4%
inhibition at 600 µM ([2]; Experiment 2): 53.5%
inhibition at 600 µM ([2]; Experiment 3): 41.6%
effect on fluorescent antibody binding to PKCepsilon [3]: not with PKCdelta, epsilon or zeta

Reference: patent US20100041597A1, “PEPTIDES TARGETED TO PROTEIN KINASE C ISOFORMS AND USES THEREOF” (priority 2005, published 2010)
